In patent publication US8012984B2, “Substituted pyrazinone melanin concentrating hormone receptor-1 antagonists and methods” (Bristol-Myers Squibb Company, priority 2007, dated 2011):

The molecules below were run against T1, human melanin concentrating hormone receptor (MCHR1) (Homo sapiens, UniProt Q99705, A5T/E4Q) (assay: Radioligand binding assay for assessment of MCHR1 activity). Settings: membranes of HEK-293 cells expressing mutated hMCHR1; competition with [125I]-MCH.
T1 construct: expressed in transfected cells; host or cells: HEK-293 (stably transfected), membranes
T1 sequence (Q99705 whole entry E4Q/A5T): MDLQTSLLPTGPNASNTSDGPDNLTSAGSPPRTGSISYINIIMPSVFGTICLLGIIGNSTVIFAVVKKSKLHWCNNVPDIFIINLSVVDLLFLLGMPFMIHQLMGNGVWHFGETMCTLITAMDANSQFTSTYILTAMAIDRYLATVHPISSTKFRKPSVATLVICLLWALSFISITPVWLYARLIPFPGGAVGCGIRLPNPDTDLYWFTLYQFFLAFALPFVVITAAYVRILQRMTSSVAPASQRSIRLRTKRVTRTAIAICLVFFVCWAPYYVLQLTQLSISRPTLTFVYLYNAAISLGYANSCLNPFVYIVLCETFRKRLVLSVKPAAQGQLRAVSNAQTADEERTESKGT
Experimental: Compounds of Formula I were initially characterized in an in vitro binding assay to determine their Ki or ability to antagonize binding of a peptide agonist to the human melanin concentrating hormone receptor (MCHR1).
Membranes from stably transfected HEK-293 cells expressing a mutated (E4Q, AST) hMCHR1 receptor were prepared by dounce homogenization and differential centrifugation. Binding experiments were carried out with 0.5-1.0 ug of membrane protein incubated in a total of 0.2 ml in 25 mM HEPES (pH 7.4) with 10 mM MgCl2, 2 mM EGTA, and 0.1% BSA (Binding Buffer) for 90 min. For competition binding assays, reactions were carried out in the presence of with 0.06-0.1 nM [Phe^n, [^125I]Tyr^19]-MCH and increasing concentrations of unlabeled test molecules. Reactions were terminated by rapid vacuum filtration over 96 well-GFC Unifilter plates pre-coated with 0.075 ml binding buffer containing 1% BSA, and washed 3 times with 0.4 ml of Phospho-buffered Saline (pH 7.4) containing 0.01% TX-100. Filters were dried; 0.05 ml microscint 20 was added to each well and radioactivity was subsequently quantified by scintillation counting on a TopCount™ microplate scintillation counter (Packard). Inhibitory constants were determined by nonlinear least squares analysis using a four parameter logistic equation.

| SMILES | Ki |
| --- | --- |
| COc1ccc(-n2ccnc(SCCc3ccc(Cl)cc3)c2=O)cc1OC [Example 3] | 576 nM |
| COc1ccc(-n2ccnc(Sc3ccc(OC(F)(F)F)cc3)c2=O)cc1OC [Example 10] | 141 nM |
| COc1cc(-n2ccnc(SCCCc3ccccc3)c2=O)ccc1OC[C@@H](C)O [Example 19] | 3130 nM |
| COc1cc(-n2ccnc(Sc3ccc(C(F)(F)F)cc3)c2=O)ccc1OCC(C)(C)O [Example 36] | 33 nM |
| COc1cc(-n2ccnc(Sc3ccc(OC(F)(F)F)cc3)c2=O)ccc1OCC(C)(C)O [Example 38] | 20 nM |
| COc1cccc(Sc2nccn(-c3ccc(OCC(C)(C)O)c(OC)c3)c2=O)c1 [Example 39] | 1580 nM |
| COc1cc(-n2ccnc(Sc3ccccc3C(F)(F)F)c2=O)ccc1OCC(C)(C)O [Example 40] | 3220 nM |
| COc1cc(-n2ccnc(Sc3nc4ccc(Cl)cc4s3)c2=O)ccc1OCC(C)(C)O [Example 59] | 125 nM |
| COc1cc(-n2ccnc(Sc3ccc(OC(F)(F)F)cc3)c2=O)ccc1OCC(O)C1CC1 (stereo not shown) [Example 67] | 28 nM |
| COc1cc(-n2ccnc(Sc3ccc(C(F)(F)F)cc3)c2=O)ccc1O[C@H]1COC[C@H]1O [Example 69] | 49 nM |
| COc1cc(-n2ccnc(Sc3ccc(C(F)(F)F)cc3)c2=O)ccc1OCC(C)O (stereo not shown) [Example 71] | 62 nM |
| CCc1cc(-n2ccnc(OCCc3ccc(Cl)cc3)c2=O)ccc1OCC(C)(C)O [Example 151] | 64 nM |
| Cc1cc(=O)n(CC(C)(C)O)c2ccc(-n3ccnc(Sc4ccc(OC(F)(F)F)cc4)c3=O)cc12 [Example 178] | 290 nM |

The next lines start with the values.

| Ki | SMILES |
| --- | --- |
| 63 nM | COc1cc(-n2ccnc(SCCc3ccccn3)c2=O)ccc1OCC(C)(C)O [Example 27, 1-(4-(2-Hydroxy-2-methylpropoxy)-3-methoxyphenyl)-3-(2-(pyridin-2-yl)-ethylthio)pyrazin-2(1H)-one] |
| 3150 nM | COc1cc(-n2ccnc(SCCc3ccncc3)c2=O)ccc1OCC(C)(C)O [Example 28] |
| 232 nM | COc1cc(-n2ccnc(SC(C)Cc3ccccc3)c2=O)ccc1OCC(C)(C)O (stereo not shown) [Example 46] |
| 3040 nM | COc1cc(-n2ccnc(Sc3ccccc3)c2=O)ccc1OCC(C)(C)O [Example 49] |
| 4660 nM | COc1cc(-n2ccnc(SCc3ccccc3)c2=O)ccc1OCC(C)(C)O [Example 50] |
| 10 nM | CCc1cc(-n2ccnc(SCCc3ccccc3)c2=O)ccc1OCC(C)(C)O [Example 65] |
| 41 nM | Cc1cc(-n2ccnc(Sc3ccc(C(F)(F)F)cn3)c2=O)ccc1OCC(C)(C)O [Example 95, 1-(4-(2-Hydroxy-2-methylpropoxy)-3-methylphenyl)-3-(5-(trifluoromethyl)pyridin-2-ylthio)pyrazin-2(1H)-one] |
| 17 nM | Cc1cc(-n2ccnc(SCCc3ccccn3)c2=O)ccc1OCC(C)(C)O [Example 110, 1-(4-(2-Hydroxy-2-methylpropoxy)-3-methylphenyl)-3-(2-(pyridin-2-yl)ethylthio)pyrazin-2(1H)-one] |
| 8 nM | Cc1cc(-n2ccnc(SCCc3ccccc3)c2=O)ccc1OCC(C)(C)O [Example 113, 1-(4-(2-Hydroxy-2-methylpropoxy)-3-methylphenyl)-3-(phenethylthio)pyrazin-2(1H)-one] |
| 9 nM | Cc1cc(-n2ccnc(SCCc3ccc(F)cc3)c2=O)ccc1OCC(C)(C)O [Example 124] |
| 17 nM | CCc1cc(-n2ccnc(SCCc3ccc(F)cc3)c2=O)ccc1OCC(C)(C)O [Example 125] |
| 18 nM | COc1cc(-n2ccnc(SCCc3cccc(F)c3)c2=O)ccc1OCC(C)(C)O [Example 131] |
| 78 nM | CC(C)(O)COc1ccc(-n2ccnc(OCCc3ccc(F)cc3)c2=O)cc1Cl [Example 141] |
| 45 nM | Cc1cc(-n2ccnc(OCCc3cccc(Cl)c3)c2=O)ccc1OCC(C)(C)O [Example 155] |
| 1730 nM | CC(C)(O)COc1ccc(-n2ccnc(Sc3ccc(C(F)(F)F)cc3)c2=O)cn1 [Example 157] |
| 1290 nM | CC(C)(O)COc1ncc(-n2ccnc(SCCc3ccccn3)c2=O)cc1Cl [Example 169] |
| 132 nM | Cc1cc(-n2ccnc(Sc3ccc(C(F)(F)F)cc3)c2=O)cnc1OCC(C)(C)O [Example 170] |
| 85 nM | Cc1cc(-n2ccnc(SCCc3ccccc3)c2=O)cnc1OCC(C)(C)O [Example 172] |

What follows are molecules tested against T2, MCHR1 (Rattus norvegicus, UniProt P97639) (assay: Assessment of in vivo MCHR1 activity (body weight and food consumption in rats with choice of diets)). Settings: 3 mg/kg p.o. daily, day 0 through day 4, male Sprague Dawley rats.
T2 construct: from tissue; host or cells: whole animal: male Sprague Dawley rats
T2 sequence (P97639 whole entry): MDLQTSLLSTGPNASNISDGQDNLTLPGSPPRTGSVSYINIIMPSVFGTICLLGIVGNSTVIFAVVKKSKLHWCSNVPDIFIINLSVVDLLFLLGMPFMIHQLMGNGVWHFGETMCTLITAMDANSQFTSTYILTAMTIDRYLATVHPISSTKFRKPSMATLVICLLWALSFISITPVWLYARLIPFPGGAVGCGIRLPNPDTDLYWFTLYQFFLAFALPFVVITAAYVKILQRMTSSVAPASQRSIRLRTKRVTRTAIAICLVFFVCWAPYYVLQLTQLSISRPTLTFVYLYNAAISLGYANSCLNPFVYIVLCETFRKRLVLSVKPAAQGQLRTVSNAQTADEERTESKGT
Design: species or system Sprague Dawley rats
Experimental: Male Sprague Dawley (CD, Charles River Breeding Laboratory) rats weighing approximately 240 grams were placed in individual plastic cages with AlphaDri bedding. The room was maintained at 72° F. and 50% humidity, and a 12/12 light dark cycle with lights out at 1600 hours. The rats were conditioned for 5 days prior to the start of the study to having a choice of foods.
Baseline body weight was measured prior to drug treatment on day 0 of the study. Baseline food consumption was the average of the 3 days prior to the first drug treatment. […] All data were evaluated using ANOVA and Fishers PLSD statistics.

| SMILES | Weight Reduction versus Vehicle |
| --- | --- |
| COc1cc(-n2ccnc(Sc3ccc(C(F)(F)F)cc3)c2=O)ccc1OCC(C)(C)OC(=O)CN [Example 193, 1-(2-Methoxy-4-(2-oxo-3-(4-(trifluoromethyl)phenylthio)pyrazin-1(2H)-yl)phenoxy)-2-methylpropan-2-yl 2-aminoacetate] | 0.7% |

Same assay, conditions: 10 mg/kg p.o. daily, day 0 through day 4, male Sprague Dawley rats

| SMILES | Weight Reduction versus Vehicle |
| --- | --- |
| COc1cc(-n2ccnc(Sc3ccc(C(F)(F)F)cc3)c2=O)ccc1OCC(C)(C)OC(=O)CN [Example 193, 1-(2-Methoxy-4-(2-oxo-3-(4-(trifluoromethyl)phenylthio)pyrazin-1(2H)-yl)phenoxy)-2-methylpropan-2-yl 2-aminoacetate] | 2.1% |

Same assay, conditions: 30 mg/kg p.o. daily, day 0 through day 4, male Sprague Dawley rats

| SMILES | Weight Reduction versus Vehicle |
| --- | --- |
| COc1cc(-n2ccnc(Sc3ccc(C(F)(F)F)cc3)c2=O)ccc1OCC(C)OC(=O)[C@@H](N)C(C)C (stereo in doubt) [Example 202, 1-(2-Methoxy-4-(2-oxo-3-(4-(trifluoromethyl)phenylthio)pyrazin-1(2H)-yl)phenoxy)propan-2-yl 2-amino-3-methylbutanoate] | 2.2% |
| COc1cc(-n2ccnc(Sc3ccc(C(F)(F)F)cc3)c2=O)ccc1OCC(C)(C)OC(=O)CN [Example 193, 1-(2-Methoxy-4-(2-oxo-3-(4-(trifluoromethyl)phenylthio)pyrazin-1(2H)-yl)phenoxy)-2-methylpropan-2-yl 2-aminoacetate] | 3.4% |

Same assay, conditions: 45 mg/kg p.o. daily, male Sprague Dawley rats

| SMILES | Weight Reduction versus Vehicle |
| --- | --- |
| COc1cc(-n2ccnc(SCCc3ccccn3)c2=O)ccc1OCC(C)(C)O [Example 27, 1-(4-(2-Hydroxy-2-methylpropoxy)-3-methoxyphenyl)-3-(2-(pyridin-2-yl)-ethylthio)pyrazin-2(1H)-one] | 4.1% |
| Cc1cc(-n2ccnc(SCCc3ccccc3)c2=O)ccc1OCC(C)(C)O [Example 113, 1-(4-(2-Hydroxy-2-methylpropoxy)-3-methylphenyl)-3-(phenethylthio)pyrazin-2(1H)-one] | 4.2% |
